Experimental data reported in doi:10.1101/2025.11.11.687791v2, “Structural basis for multiple binding modes of antimalarial ligands targeting Plasmodium falciparum NCR1” (biorxiv, 2026).

What was measured:
Assay type in all cases: binding
PfNCR1 [1] = target: T1, PfNCR1 (Plasmodium falciparum, UniProt Q8I266); assay: cryo-EM structure of the complex; details: ecto site, alongside CHS; GDN
T1 construct: gene NCR1; CHS added for structural samples
T1 sequence (Q8I266 1-1470): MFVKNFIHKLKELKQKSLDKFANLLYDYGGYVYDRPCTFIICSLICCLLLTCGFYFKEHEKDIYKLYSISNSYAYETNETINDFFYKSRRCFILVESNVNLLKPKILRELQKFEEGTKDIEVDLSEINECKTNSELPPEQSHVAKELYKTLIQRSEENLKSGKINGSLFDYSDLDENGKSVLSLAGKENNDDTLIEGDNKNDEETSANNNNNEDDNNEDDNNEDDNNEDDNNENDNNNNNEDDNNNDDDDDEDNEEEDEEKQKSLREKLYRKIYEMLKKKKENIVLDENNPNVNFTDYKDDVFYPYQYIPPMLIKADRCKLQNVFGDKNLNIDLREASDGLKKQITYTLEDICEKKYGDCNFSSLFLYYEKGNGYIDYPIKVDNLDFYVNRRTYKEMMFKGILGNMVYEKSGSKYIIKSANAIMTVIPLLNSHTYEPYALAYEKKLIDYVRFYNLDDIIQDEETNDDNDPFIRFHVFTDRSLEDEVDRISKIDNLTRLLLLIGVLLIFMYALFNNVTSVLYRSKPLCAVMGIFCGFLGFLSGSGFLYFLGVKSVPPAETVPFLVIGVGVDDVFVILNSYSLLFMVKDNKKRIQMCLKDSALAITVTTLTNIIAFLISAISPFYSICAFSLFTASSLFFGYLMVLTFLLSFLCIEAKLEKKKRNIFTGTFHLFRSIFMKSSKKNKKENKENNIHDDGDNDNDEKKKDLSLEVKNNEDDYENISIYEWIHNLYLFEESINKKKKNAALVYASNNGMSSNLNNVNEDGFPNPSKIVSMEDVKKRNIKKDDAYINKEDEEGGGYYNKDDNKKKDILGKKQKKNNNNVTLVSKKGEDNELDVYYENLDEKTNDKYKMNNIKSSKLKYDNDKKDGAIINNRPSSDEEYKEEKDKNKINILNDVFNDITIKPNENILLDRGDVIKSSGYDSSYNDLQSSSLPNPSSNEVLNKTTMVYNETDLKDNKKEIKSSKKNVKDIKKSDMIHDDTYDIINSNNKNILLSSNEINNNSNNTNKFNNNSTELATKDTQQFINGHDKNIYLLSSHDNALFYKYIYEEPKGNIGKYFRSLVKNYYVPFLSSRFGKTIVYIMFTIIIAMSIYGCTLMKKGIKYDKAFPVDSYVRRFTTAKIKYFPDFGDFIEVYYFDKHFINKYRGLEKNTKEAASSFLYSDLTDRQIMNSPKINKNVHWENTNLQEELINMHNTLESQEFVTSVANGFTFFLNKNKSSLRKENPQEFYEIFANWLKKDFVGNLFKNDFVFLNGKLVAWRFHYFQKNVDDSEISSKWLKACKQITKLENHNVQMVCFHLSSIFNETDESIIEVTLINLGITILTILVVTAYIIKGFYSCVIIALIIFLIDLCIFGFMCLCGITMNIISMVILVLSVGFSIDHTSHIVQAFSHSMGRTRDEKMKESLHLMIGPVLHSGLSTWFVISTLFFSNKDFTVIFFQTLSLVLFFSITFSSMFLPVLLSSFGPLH

PfNCR1 [2] = target: T1, PfNCR1; assay: cryo-EM structure of the complex, […] Å; details: 1 mM compound; ecto site, displaces CHS
PfNCR1 [3] = target: T1, PfNCR1; assay: tryptophan fluorescence quenching; details: purified protein in GDN; ecto site

SMILES | cryo-EM structure of the complex (PfNCR1 [1]) | cryo-EM structure of the complex, 3.69 Å (PfNCR1 [2]) | apparent Kd (PfNCR1 [3])
COc1ccc(N2CCN(C(CNC(=O)c3c(F)cccc3F)c3ccc4c(c3)OCO4)CC2)cc1 (stereo not drawn) [Compound 4, G856-4236] | the new compound was bound to the ecto site without displacing the sterol |  | 
CC(C)c1cccc(C(NC(=O)C2Cc3ccccc3CN2C(=O)c2cccc(N3CCOCC3)c2)C2CCCC2)c1 (stereo not drawn) [Compound 2, MMV028038] |  | this ligand completely displaces the CHS molecule in the ECD sterol site | tryptophan quenching-based binding assays revealed the apparent Kd values in the micromolar range
